≈ marks a conversion by molar mass, not a printed value.
Tests used:
Format in all cases: functional
Escherichia coli = assay: Antibacterial activity against Escherichia coli ATCC 25922 by broth microdilution method
Staphylococcus aureus = assay: Antibacterial activity against Staphylococcus aureus ATCC 29213 by broth microdilution method
Pseudomonas aeruginosa = assay: Antibacterial activity against Pseudomonas aeruginosa B 63230 by broth microdilution method

**Q.** With `CN(C)[C@@H]1C(O)=C(C(N)=O)C(=O)[C@@]2(O)C(O)=C3C(=O)c4c(O)cccc4[C@@](C)(O)[C@H]3C[C@@H]12` [TETRACYCLINE] as the molecule, how does the MIC (Escherichia coli) read?
**A.** Its MIC is 0.5 µg/mL (≈ 1.13 µM).

**Q.** And the MIC (Staphylococcus aureus)?
**A.** The MIC was 0.25 µg/mL (≈ 0.563 µM).

**Q.** What about the MIC (Pseudomonas aeruginosa) of the same molecule?
**A.** Its MIC is 32 µg/mL (≈ 72 µM).
